Reference: PMC4716540 (British Journal of Cancer, 2015)

Key:
Hsp90 = conditions: ref Nakashima et al, 2010; Ishii et al, 2012; cited from earlier work
[1] = tested on: patients with confirmed relapsed/refractory MM, CLL, or NHL; experiment: Phase I safety and tolerability: adverse events, DLT, MTD, RP2D; type: in vivo, human

In the case of `CCc1c(O)cc(O)c(C(=O)c2ccc(OCCN3CCOCC3)c(OC)c2)c1CC(=O)N(CCOC)CCOC` [KW-2478], the “Binding affinity to Hsp90” value (Hsp90) is listed as “high binding affinity”, the “Number of treatment-related AEs per patient (average)” value ([1]; 14 mg m^–2) is listed as 1.0 and the “AE (treatment-emergent)” value ([1]; 14 mg m^–2 (n=3)) is listed as 3 (100.0) No. of patients (%). For the same compound, the “Abdominal pain (any AE)” value ([1]; 14 mg m^–2 (n=3)) was 0 No. of patients (%), the “Acne (any AE)” value ([1]; 14 mg m^–2 (n=3)) was 0 No. of patients (%) and the “Anaemia (any AE)” value ([1]; 14 mg m^–2 (n=3)) was 0 No. of patients (%). For the same compound, the “Anorexia (any AE)” value ([1]; 14 mg m^–2 (n=3)) was 0 No. of patients (%), the “Back pain (any AE)” value ([1]; 14 mg m^–2 (n=3)) was 1 (33.3) No. of patients (%) and the “Diarrhoea (any AE)” value ([1]; 14 mg m^–2 (n=3)) was 0 No. of patients (%). The “Dizziness (any AE)” value ([1]; 14 mg m^–2 (n=3)) was 0 No. of patients (%), the “Fatigue (any AE)” value ([1]; 14 mg m^–2 (n=3)) was 1 (33.3) No. of patients (%) and the “Haemoglobin decreased (any AE)” value ([1]; 14 mg m^–2 (n=3)) was 0 No. of patients (%). For the same compound, the “Hair disorder (any AE)” value ([1]; 14 mg m^–2 (n=3)) was 0 No. of patients (%), the “Headache (any AE)” value ([1]; 14 mg m^–2 (n=3)) was 1 (33.3) No. of patients (%) and the “Herpes simplex infection (any AE)” value ([1]; 14 mg m^–2 (n=3)) was 0 No. of patients (%). For the same compound, the “Hypertension (any AE)” value ([1]; 14 mg m^–2 (n=3)) was 0 No. of patients (%), the “LRTI (any AE)” value ([1]; 14 mg m^–2 (n=3)) was 0 No. of patients (%) and the “Musculoskeletal chest pain (any AE)” value ([1]; 14 mg m^–2 (n=3)) was 0 No. of patients (%). For the same compound, the “Nausea (any AE)” value ([1]; 14 mg m^–2 (n=3)) was 1 (33.3) No. of patients (%), the “Oral herpes (any AE)” value ([1]; 14 mg m^–2 (n=3)) was 0 No. of patients (%) and the “Rhinitis (any AE)” value ([1]; 14 mg m^–2 (n=3)) was 1 (33.3) No. of patients (%). For the same compound, the “Serious AE” value ([1]; 14 mg m^–2 (n=3)) was 0 No. of patients (%), the “Treatment-related AE” value ([1]; 14 mg m^–2 (n=3)) was 2 (66.7) No. of patients (%) and the “Vomiting (any AE)” value ([1]; 14 mg m^–2 (n=3)) was 0 No. of patients (%). The “AE (treatment-emergent)” value ([1]; 28 mg m^–2 (n=3)) was 3 (100.0) No. of patients (%), the “Abdominal pain (any AE)” value ([1]; 28 mg m^–2 (n=3)) was 0 No. of patients (%) and the “Acne (any AE)” value ([1]; 28 mg m^–2 (n=3)) was 1 (33.3) No. of patients (%). The “Anaemia (any AE)” value ([1]; 28 mg m^–2 (n=3)) was 0 No. of patients (%), the “Anorexia (any AE)” value ([1]; 28 mg m^–2 (n=3)) was 0 No. of patients (%) and the “Back pain (any AE)” value ([1]; 28 mg m^–2 (n=3)) was 1 (33.3) No. of patients (%). The “Diarrhoea (any AE)” value ([1]; 28 mg m^–2 (n=3)) was 0 No. of patients (%), the “Dizziness (any AE)” value ([1]; 28 mg m^–2 (n=3)) was 0 No. of patients (%) and the “Fatigue (any AE)” value ([1]; 28 mg m^–2 (n=3)) was 0 No. of patients (%). The “Haemoglobin decreased (any AE)” value ([1]; 28 mg m^–2 (n=3)) was 0 No. of patients (%), the “Hair disorder (any AE)” value ([1]; 28 mg m^–2 (n=3)) was 1 (33.3) No. of patients (%) and the “Headache (any AE)” value ([1]; 28 mg m^–2 (n=3)) was 0 No. of patients (%). For the same compound, the “Herpes simplex infection (any AE)” value ([1]; 28 mg m^–2 (n=3)) was 1 (33.3) No. of patients (%), the “Hypertension (any AE)” value ([1]; 28 mg m^–2 (n=3)) was 0 No. of patients (%) and the “LRTI (any AE)” value ([1]; 28 mg m^–2 (n=3)) was 0 No. of patients (%). For the same compound, the “Musculoskeletal chest pain (any AE)” value ([1]; 28 mg m^–2 (n=3)) was 0 No. of patients (%), the “Nausea (any AE)” value ([1]; 28 mg m^–2 (n=3)) was 1 (33.3) No. of patients (%) and the “Oral herpes (any AE)” value ([1]; 28 mg m^–2 (n=3)) was 1 (33.3) No. of patients (%). The “Rhinitis (any AE)” value ([1]; 28 mg m^–2 (n=3)) was 1 (33.3) No. of patients (%), the “Serious AE” value ([1]; 28 mg m^–2 (n=3)) was 0 No. of patients (%) and the “Treatment-related AE” value ([1]; 28 mg m^–2 (n=3)) was 2 (66.7) No. of patients (%). For the same compound, the “Vomiting (any AE)” value ([1]; 28 mg m^–2 (n=3)) was 1 (33.3) No. of patients (%), the “AE (treatment-emergent)” value ([1]; 47 mg m^–2 (n=4)) was 4 (100.0) No. of patients (%) and the “Abdominal pain (any AE)” value ([1]; 47 mg m^–2 (n=4)) was 0 No. of patients (%). For the same compound, the “Acne (any AE)” value ([1]; 47 mg m^–2 (n=4)) was 1 (25.0) No. of patients (%), the “Anaemia (any AE)” value ([1]; 47 mg m^–2 (n=4)) was 1 (25.0) No. of patients (%) and the “Anorexia (any AE)” value ([1]; 47 mg m^–2 (n=4)) was 0 No. of patients (%). For the same compound, the “Back pain (any AE)” value ([1]; 47 mg m^–2 (n=4)) was 0 No. of patients (%), the “Diarrhoea (any AE)” value ([1]; 47 mg m^–2 (n=4)) was 2 (50.0) No. of patients (%) and the “Dizziness (any AE)” value ([1]; 47 mg m^–2 (n=4)) was 0 No. of patients (%). The “Fatigue (any AE)” value ([1]; 47 mg m^–2 (n=4)) was 0 No. of patients (%), the “Haemoglobin decreased (any AE)” value ([1]; 47 mg m^–2 (n=4)) was 0 No. of patients (%) and the “Hair disorder (any AE)” value ([1]; 47 mg m^–2 (n=4)) was 1 (25.0) No. of patients (%). For the same compound, the “Headache (any AE)” value ([1]; 47 mg m^–2 (n=4)) was 0 No. of patients (%), the “Herpes simplex infection (any AE)” value ([1]; 47 mg m^–2 (n=4)) was 0 No. of patients (%) and the “Hypertension (any AE)” value ([1]; 47 mg m^–2 (n=4)) was 2 (50.0) No. of patients (%). The “LRTI (any AE)” value ([1]; 47 mg m^–2 (n=4)) was 0 No. of patients (%), the “Musculoskeletal chest pain (any AE)” value ([1]; 47 mg m^–2 (n=4)) was 0 No. of patients (%) and the “Nausea (any AE)” value ([1]; 47 mg m^–2 (n=4)) was 0 No. of patients (%). For the same compound, the “Oral herpes (any AE)” value ([1]; 47 mg m^–2 (n=4)) was 0 No. of patients (%), the “Rhinitis (any AE)” value ([1]; 47 mg m^–2 (n=4)) was 1 (25.0) No. of patients (%) and the “Serious AE” value ([1]; 47 mg m^–2 (n=4)) was 0 No. of patients (%). For the same compound, the “Treatment-related AE” value ([1]; 47 mg m^–2 (n=4)) was 3 (75.0) No. of patients (%), the “Vomiting (any AE)” value ([1]; 47 mg m^–2 (n=4)) was 1 (25.0) No. of patients (%) and the “AE (treatment-emergent)” value ([1]; 71 mg m^–2 (n=4)) was 4 (100.0) No. of patients (%). The “Abdominal pain (any AE)” value ([1]; 71 mg m^–2 (n=4)) was 0 No. of patients (%), the “Acne (any AE)” value ([1]; 71 mg m^–2 (n=4)) was 1 (25.0) No. of patients (%) and the “Anaemia (any AE)” value ([1]; 71 mg m^–2 (n=4)) was 0 No. of patients (%). For the same compound, the “Anorexia (any AE)” value ([1]; 71 mg m^–2 (n=4)) was 0 No. of patients (%), the “Back pain (any AE)” value ([1]; 71 mg m^–2 (n=4)) was 0 No. of patients (%) and the “Diarrhoea (any AE)” value ([1]; 71 mg m^–2 (n=4)) was 2 (50.0) No. of patients (%). For the same compound, the “Dizziness (any AE)” value ([1]; 71 mg m^–2 (n=4)) was 2 (50.0) No. of patients (%), the “Fatigue (any AE)” value ([1]; 71 mg m^–2 (n=4)) was 1 (25.0) No. of patients (%) and the “Haemoglobin decreased (any AE)” value ([1]; 71 mg m^–2 (n=4)) was 1 (25.0) No. of patients (%). For the same compound, the “Hair disorder (any AE)” value ([1]; 71 mg m^–2 (n=4)) was 1 (25.0) No. of patients (%), the “Headache (any AE)” value ([1]; 71 mg m^–2 (n=4)) was 2 (50.0) No. of patients (%) and the “Herpes simplex infection (any AE)” value ([1]; 71 mg m^–2 (n=4)) was 1 (25.0) No. of patients (%). For the same compound, the “Hypertension (any AE)” value ([1]; 71 mg m^–2 (n=4)) was 2 (50.0) No. of patients (%), the “LRTI (any AE)” value ([1]; 71 mg m^–2 (n=4)) was 1 (25.0) No. of patients (%) and the “Musculoskeletal chest pain (any AE)” value ([1]; 71 mg m^–2 (n=4)) was 0 No. of patients (%). For the same compound, the “Nausea (any AE)” value ([1]; 71 mg m^–2 (n=4)) was 2 (50.0) No. of patients (%), the “Oral herpes (any AE)” value ([1]; 71 mg m^–2 (n=4)) was 1 (25.0) No. of patients (%) and the “Rhinitis (any AE)” value ([1]; 71 mg m^–2 (n=4)) was 1 (25.0) No. of patients (%). The “Serious AE” value ([1]; 71 mg m^–2 (n=4)) was 2 (50) No. of patients (%), the “Treatment-related AE” value ([1]; 71 mg m^–2 (n=4)) was 4 (100.0) No. of patients (%) and the Death ([1]; 71 mg m^–2 (n=4), considered unrelated to medication) was 1 (25) No. of patients (%).
